In test [1] the test system is BRAF^V600-mutant melanoma. As to conditions: cited from earlier work.
The test system of test [2] is A375 xenografts. As to the kind of experiment: A375 xenografts, BVD-523 in combination with dabrafenib. It counts as in vivo, mice. The note with it: 100 mg/kg QD. From the text:
(§1) For measurement of antitumor activity in A375 xenografts, xenografts were initiated with A375 cells maintained by serial subcutaneous transplantation in female athymic nude mice. Each test mouse received an A375 tumor fragment (1 mm^3) implanted subcutaneously in the right flank. Once tumors reached target size (80-120 mm^3), animals were randomized into treatment and control groups, and drug treatment was initiated.
(§2) Combination dosing was stopped on Day 20 to monitor for tumor regrowth. Animals were monitored individually and euthanized when each tumor reached an endpoint volume of 2000 mm^3, or the final day (Day 45), whichever came first, and median time to endpoint (TTE) calculated. The combination was also evaluated in an upstaged A375 model where larger tumors in the range 228-1008 mm^3 were evaluated. Here, mice were randomized into 1 group (Group 1) of 14 and 4 groups (Groups 2-5) of 20. […] Tumors were measured twice weekly. Combination dosing was stopped on Day 42 to monitor for tumor regrowth through study end (Day 60). Treatment outcome was determined from % TGD, defined as the percent increase in median TTE for treated versus control mice, with differences between groups analyzed via log rank survival analysis. […] Mice were also monitored for CR and PR responses. Animals with a CR at the end of the study were additionally classified as TFS.

Test [3] has as its system patient-derived xenograft (AT052C). The experiment in a line: Patient-derived xenograft from vemurafenib-refractory BRAFV600E melanoma. It counts as in vivo, mice.
Source text: Tumor fragments were harvested from host animals and implanted into immune-deficient mice.
The subject of another test is upstaged A375 xenografts. As to the kind of experiment: Upstaged A375 xenograft model, BVD-523 in combination with dabrafenib. It counts as in vivo, mice. As to conditions: 50 mg/kg BID; 11 evaluable mice. The procedure: as §2
Test [4] concerns dose-escalated A375 cells. As to the kind of experiment: Proliferation assay (Alamar Blue, 96 h) in dose-escalated A375 cell lines. It counts as cell-based, human. As to conditions: for IC50: Homo sapiens; for Fold Change of IC50: BRAFi- + MEKi-resistant versus parental A375. On the technique in general: Resazurin is reduced to fluorescent resorufin, in cell work by metabolically active cells.
Source text: (§6) Cancer cell lines were maintained in cell culture under standard media and serum conditions. For dose escalation studies, A375 cells were split, grown to about 40-60% confluence, and then treated with the initial dose of the specified drug.
(§7) Cells were then allowed to grow until 70-90% confluence and split. Split ratios were kept as “normal” as possible and reasonably consistent between treatments (e.g. a minimum of 50% of the normal split ratio of the parentals). Medium was refreshed every 3-4 days. When cells again reached about 40-60% confluence, the dose was escalated. In the event that the 40-60% window was missed, the cells were split again and dosed once they reached 40-60% confluence. Again, medium was refreshed every 3-4 days.
(§8) Proliferation assays were used to track changes in sensitivity to the escalated agent(s) at appropriate time intervals (e.g. each month, although the timing is dependent on adequate cell numbers being available). For proliferation assays, cells were seeded in 96-well plates at 3000 cells per well in drug-free DMEM medium containing 10% FBS and allowed to adhere overnight prior to addition of compound or vehicle control. The final DMSO concentration was constant at 0.1%. Test compounds were incubated with the cells for 96 hours at 37° C. and 5% CO2 in a humidified atmosphere. Alamar Blue 10% (v/v) was then added and incubated for 4 hours and fluorescent product was detected using a BMG FLUOstar plate reader. The average media only background value was deducted and the data analyzed using a 4-parameter logistic equation in GraphPad Prism.
(§9) For assessment of drug sensitivity in cell-line models of acquired resistance, drug sensitivity of dose-escalated A375 cells and isogenic RKO cells was assessed in 96-hour proliferation assays. […] For the A375 assays Alamar blue (ThermoFisher) 10% (v/v) was added and incubated for 4 h, and fluorescent product was then detected using a BMG FLUOstar. The average media only background value was deducted and the data analyzed using a 4-parameter logistic equation in GraphPad Prism.
(§10) Cells were allowed to grow until ˜70-90% confluence and split; medium was refreshed every 3-4 days. […] This process was repeated as required.

Test [5] deals with A375 cells. The experiment in a line: Dose escalation study (acquisition of resistance). It counts as cell-based, human. As to conditions: progressively increasing concentrations.
Source text: as §6, §7, §10
In test [6] the test system is RKO MEK1 (Q56P/+) Clone 1. The experiment in a line: Single agent proliferation assay (CellTiter-Glo, 96 h). It counts as cell-based. The note with it: RKO MEK1 Q56P/+ Cl.1. How it is done: (§3) For assessment of drug sensitivity in cell-line models of acquired resistance, drug sensitivity of dose-escalated A375 cells and isogenic RKO cells was assessed in 96-hour proliferation assays. […] For the A375 assays Alamar blue (ThermoFisher) 10% (v/v) was added and incubated for 4 h, and fluorescent product was then detected using a BMG FLUOstar.
(§4) RKO MEK1 Q56P Isogenic cells were produced by Horizon Discovery (Cambridge, UK; #HD 106-019) using a recombinant AAV-mediated gene targeting strategy. Briefly, rAAV virus was generated following transfection of the appropriate targeting vector and helper vectors in HEK293T cells, purified using an AAV purification kit (Virapur, San Diego, USA) and titrated using qPCR. Parental homozygous RKO cells (homozygous wild type for MEK1) were then infected with rAAV virus and clones that had integrated the selection cassette were identified by G418 selection and expanded. Correctly targeted clones that were heterozygous for knock-in of the MEK1 Q56P point mutation into a single allele were identified by PCR and sequencing.
(§5) Compounds were prepared from DMSO stocks to give the desired final concentrations. The final DMSO concentration was constant at 0.1%. […] CellTiter-Glo® reagent (Promega, Madison, Wis.) was added according to manufacturer's instructions and luminescence detected using the BMG FLUOstar plate reader (BMG Labtech, Ortenberg, Germany).

In test [7] the test system is RKO MEK1 (Q56P/+) Clone 2. Described as above. It counts as cell-based. As to conditions: RKO MEK1 Q56P/+ Cl.2. The procedure: as §3, §4, §5
In test [8] the test system is SW48 cell lines heterozygous for knock-in of mutant KRAS. As to the kind of experiment: Proliferation assay in isogenic SW48 lines with knock-in of mutant KRAS (Alamar blue, 96 h). It counts as cell-based. As to conditions: versus control SW48. How it is done:
Isogenic SW48 cell lines heterozygous for knock-in of mutant KRAS (De Roock et al 2010, JAMA, 304, 1812-1820) were obtained from Horizon Discovery (Catalogue numbers; HD 103-002, HD 103-006 HD 103-007, HD 103-009, HD 103-010, HD 103-011, HD 103-013). […] Viability was then assessed using Alamar blue.

Test [9] has as its system A375 cells. As to the kind of experiment: Proliferation assay (Alamar Blue, 96 h) in parental A375 cells. It counts as cell-based. The note with it: Homo sapiens, A-375, Parental A375.
Procedure: as §8, §9
Another test has as its system RKO Parental. As to the kind of experiment: Single agent proliferation assay (CellTiter-Glo, 96 h). It counts as cell-based. The procedure: as §3, §5
(In general: Cellular ATP, detected with luciferase, serves as a proxy for viable cell number.)

The subject of test [10] is A375 xenografts. The experiment in a line: Antitumor activity in A375 xenografts, monotherapy. It counts as in vivo, mice. How it is done:
as §1
Oral temozolomide was administered as a positive reference compound at 75 or 175 mg/kg once daily (QD) for a total of five treatments (QD×5).

Setting [11] is: A-375, BRAFi- + MEKi-resistant (dabrafenib and trametinib combination-resistant) A375 population, read-out: IC50.
[12] abbreviates: A-375, Month 1, Dab/Tram-escalated line, read-out: Relative IC50.
The mark [13] stands for this setting: A-375, Month 1, Tram/523-escalated line, read-out: Relative IC50.
Setting [14] is: A-375, Month 2, Dab/Tram-escalated line, read-out: Relative IC50.
The mark [15] stands for this setting: A-375, Month 2, Tram/523-escalated line, read-out: Relative IC50.
Where [16] appears, read: A-375, Month 3, Dab/Tram-escalated line, read-out: Relative IC50.
[17] abbreviates: A-375, Month 3, Tram/523-escalated line, read-out: Relative IC50.

Results on four compounds are retold here after US20210038587A1, “METHODS AND COMPOSITIONS FOR TREATING NON-ERK MAPK PATHWAY INHIBITOR-RESISTANT CANCERS” (BIOMED VALLEY DISCOVERIES, INC., priority 2013, published 2021).

For orientation: TGI means how far tumour growth fell short of that in controls. Read a low TGI as a weaker effect on the tumour. A word on the IC50: it is the midpoint of a concentration-inhibition curve.

Like-named read-outs stand apart in the source and are kept apart here.

In the case of `CC(C)(C)c1nc(-c2cccc(NS(=O)(=O)c3c(F)cccc3F)c2F)c(-c2ccnc(N)n2)s1` [Dabrafenib], the overall survival in [1] (Long et al. 2015, BRAF^V600E/K) was 18.7 months. In addition, in test [1] (Long et al. 2015), the overall response is reported as 53%. Besides, in test [1] (Long et al. 2015), the “progression-free survival (PFS)” value is on record as 8.8 months. In addition, the response rate result in [1] (phase III, single agent versus dacarbazine) is “approximately 50%”. Also, the PR in the test on A375 xenografts [2] is listed as 1. The same compound registered a tumour growth inhibition (TGI) in [3] (50 mg/kg BID) of 22%. In addition, the “activity in patient-derived line ST052C” value in test [3] (dabrafenib 50 mg/kg BID, BVD-523 100 mg/kg BID) was “acquired cross-resistance”. Further, in the test on upstaged A375 xenografts, the CRs is given as 5. Further, the PRs in the test on upstaged A375 xenografts is 5. The TFS with upstaged A375 xenografts is on record as 3. The concentration for half-maximal inhibition (IC50) in [4] (A-375, BRAFi- + MEKi-resistant (dabrafenib and trametinib combination-resistant) A375 population) is 17.9 nM; in test [4] (A-375, read-out: Relative IC50, Month 1, BVD-523-escalated line), 8 nM; in test [4] (A-375, read-out: Relative IC50, Month 1, Dab/523-escalated line), 68 nM; in test [4] (A-375, read-out: Relative IC50, Month 1, Dab/Tram-escalated line), 58 nM; in test [4] (A-375, read-out: Relative IC50, Month 1, Tram-escalated line) it was 29 nM; in test [4] (A-375, read-out: Relative IC50, Month 1, Tram/523-escalated line), 11 nM. In addition, the 50% inhibitory concentration (IC50) was determined as 697 nM in [4] (A-375, read-out: Relative IC50, Month 2, BVD-523-escalated line); 11.5 nM in [4] (A-375, read-out: Relative IC50, Month 2, Dab-escalated line); 218 nM in test [4] (A-375, read-out: Relative IC50, Month 2, Dab/523-escalated line); 256 nM in test [4] (A-375, read-out: Relative IC50, Month 2, Dab/Tram-escalated line); 68 nM in test [4] (A-375, read-out: Relative IC50, Month 2, Tram/523-escalated line); 18.4 nM in [4] (A-375, read-out: Relative IC50, Month 3, BVD-523-escalated line). In addition, the IC50 in test [4] (A-375, read-out: Relative IC50, Month 3, Dab-escalated line) was 2.5 nM; in test [4] (A-375, read-out: Relative IC50, Month 3, Dab/523-escalated line) it was 337 nM; in test [4] (A-375, read-out: Relative IC50, Month 3, Dab/Tram-escalated line) it was 17.9 nM; in test [4] (A-375, read-out: Relative IC50, Month 3, Tram/523-escalated line), 73 nM. Also, the “emergence of drug-resistant cell lines” value in the test on A375 cells [5] is “readily obtained”.
Consider `CC(=O)O[C@H]1C(=O)[C@@]2(C)[C@H]([C@H](OC(=O)c3ccccc3)[C@]3(O)C[C@H](OC(=O)[C@H](O)[C@@H](NC(=O)c4ccccc4)c4ccccc4)C(C)=C1C3(C)C)[C@]1(OC(C)=O)CO[C@@H]1C[C@@H]2O` [Paclitaxel], for which the IC50 in test [6] amounted to 2 nM; in test [7], 2 nM; with A375 cells [9], 1.9 nM; in test [4] (setting [11]), 3.5 nM; in test [4] (setting [12]), 3.5 nM; in test [4] (setting [13]), 3.4 nM. Besides, the concentration for half-maximal inhibition (IC50) was determined as 4.7 nM in [4] (setting [14]); 8.9 nM in test [4] (setting [15]); 4.7 nM in [4] (setting [16]); 8.9 nM in test [4] (setting [17]); 2 nM with RKO Parental. Also, the “sensitivity after knock-in of KRAS mutant alleles” value in test [8] is “unaltered”. In [4], the “Fold Change of IC50” value is reported as “+1.8 fold”.
Consider `CC(=O)Nc1cccc(-n2c(=O)n(C3CC3)c(=O)c3c(Nc4ccc(I)cc4F)n(C)c(=O)c(C)c32)c1` [Trametinib], for which the half-inhibitory concentration (IC50) is 93 nM in test [6]; 80 nM in test [7]; 0.2 nM in the test on A375 cells [9]; 2.7 nM in test [4] (setting [11]); 3.9 nM in test [4] (setting [12]); 2.5 nM in test [4] (setting [13]). The IC50 in test [4] (setting [14]) turned out to be 12.6 nM; in [4] (setting [15]) it was 4.6 nM; in [4] (setting [16]), 2.7 nM; in test [4] (setting [17]), 11.2 nM; in the test with RKO Parental, 6 nM. For the same compound, the “Fold Change of IC50” value in test [4] is given as “+13.5 fold”; in [4] (listed as trametinib), 13.5 fold.
Turning to `Cn1nnc2c(C(N)=O)ncn2c1=O` [temozolomide], the “tumor growth inhibition (TGI)” value was found to be 34% in the test with A375 xenografts [10] (75 mg/kg QD×5) and 78% in the test on A375 xenografts [10] (175 mg/kg QD×5).
